Read-outs that look alike come from different tables or passages of the source.
Key:
[1] = biological target: T1, human RNase 5 (RN5_Human) (Homo sapiens, UniProt P03950); test: NMR chemical shift titration, ligand binding to human RNase 5; details: 298 K, 15 mM sodium acetate pH 5.0, ± standard deviation of the fit
T1 construct: made in house; host or cells: Escherichia coli
From the text: (§1) The pH was carefully monitored throughout the experiments and readjusted with Tris-base or acetic acid if necessary. Ligands 3′-UMP (Chemical Impex Intl Inc., Wood Dale, IL, USA) and 5′-AMP (BioBasic Inc., Markham, ON Canada) were purchased commercially and dissolved in the same buffer as the protein. ^1H-^15N sensitivity-enhanced HSQC experiments were acquired at 800 MHz (18.8 T) using spectral widths (points) of 2025 (160) and 8000 Hz (1024) in the ω1 and ω2 dimensions, respectively. Titration experiments were performed for each ligand with enzyme:ligand molar ratios up to 1:12 (1:12), 1:18 (1:18), 1:24 (1:18), 1:30 (1:18) and 1:18 (1:30) for the 3′-UMP- (5′-AMP-) bound states of bovine RNase A and human RNases 2, 3, 4, and 5, respectively.
(§2) The equilibrium dissociation constant (Kd) was calculated by plotting weighted average chemical shift differences (Δδobs) as a function of ligand concentration and fitting the data using the following equation: […]
(§3) The Kd was estimated by simultaneously fitting the data of all residues affected by ligand binding (Williamson, [2013]). We note that Δδmax is a fitted parameter and not an experimentally measured one. […] Chemical shift perturbations (Δδobs) were calculated as the difference in the weighted average chemical shift of the ligand-bound (5′-AMP and 3′-UMP) and apo states, as shown below. […]

[2] = biological target: T2, human RNase 2 (RN2_Human) (Homo sapiens, UniProt P10153); test: NMR chemical shift titration, ligand binding to human RNase 2
T2 construct: made in house; host or cells: Escherichia coli
From the text: as §1, §2, §3

[3] = biological target: bovine RNase A (RNA_Bovine); parameters: method as in Gagné et al. ([2012]); details: ref Gagné et al. ([2012]); cited from earlier work
[4] = biological target: T3, human RNase 4 (RN4_Human) (Homo sapiens, UniProt P34096); test: NMR chemical shift titration, ligand binding to human RNase 4; details: 298 K, 15 mM sodium acetate pH 5.0, ± standard deviation of the fit
T3 construct: made in house; host or cells: Escherichia coli
T3 sequence (P34096 29-147): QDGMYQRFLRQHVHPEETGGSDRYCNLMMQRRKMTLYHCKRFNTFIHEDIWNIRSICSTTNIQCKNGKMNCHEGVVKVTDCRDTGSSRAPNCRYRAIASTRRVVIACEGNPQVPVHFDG
From the text: as §1, §2, §3

[5] = biological target: T4, human RNase 3 (RN3_Human) (Homo sapiens, UniProt P12724); test: NMR chemical shift titration, ligand binding to human RNase 3
T4 construct: made in house; host or cells: Escherichia coli
T4 sequence (P12724 28-160): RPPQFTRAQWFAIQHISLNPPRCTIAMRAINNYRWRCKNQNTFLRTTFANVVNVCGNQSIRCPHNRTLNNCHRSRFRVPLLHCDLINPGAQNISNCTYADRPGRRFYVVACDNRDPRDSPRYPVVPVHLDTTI
From the text: as §1
The equilibrium dissociation constant (Kd) was calculated by plotting weighted average chemical shift differences (Δδobs) as a function of ligand concentration and fitting the data using the following equation:
(1) Δδobs=Δδmax/2[P]t([P]t+[L]t/[P]t[P]t+Kd −([P]t+[L]t/[P]t[P]t+Kd)^2−4[L]t/[P]t[P]^2t)
The Kd was estimated by simultaneously fitting the data of all residues affected by ligand binding (Williamson, [2013]). We note that Δδmax is a fitted parameter and not an experimentally measured one. Uncertainties on these values are given by the standard deviations of the fits. Chemical shift perturbations (Δδobs) were calculated as the difference in the weighted average chemical shift of the ligand-bound (5′-AMP and 3′-UMP) and apo states, as shown below.
(2) Δδobs=(ΔδH)^2+(0.2ΔδN)^2/2

[6] = RN3_Human, 298 K, 15 mM sodium acetate pH 5.0, ± standard deviation of the fit, read-out: Kd

T2 sequence (P10153 28-161): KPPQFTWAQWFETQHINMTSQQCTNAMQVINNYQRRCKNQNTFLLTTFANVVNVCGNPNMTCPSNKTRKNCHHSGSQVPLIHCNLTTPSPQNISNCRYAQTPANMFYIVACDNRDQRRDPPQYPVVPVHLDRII
T1 sequence (P03950 25-147): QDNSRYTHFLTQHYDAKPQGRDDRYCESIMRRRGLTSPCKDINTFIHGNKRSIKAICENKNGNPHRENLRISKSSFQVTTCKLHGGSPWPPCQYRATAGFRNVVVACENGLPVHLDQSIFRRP

Compound | Kd [1] | Kd [2] | Kd [3] | Kd [4] | Kd [5, 6] | Kd ([2]; RN2_Human, 298 K, 15 mM sodium acetate pH 5.0, ± standard deviation of the fit, read-out: Kd) | Kd [5]
O=c1ccn([C@@H]2O[C@H](CO)[C@@H](OP(=O)(O)O)[C@H]2O)c(=O)[nH]1 [3′-UMP] | 1940 µM | 456 ± 10.6 µM | 9.7 ± 0.9 µM | 10300 µM | 460 ± 100 µM | – | –
Nc1ncnc2c1ncn2[C@@H]1O[C@H](COP(=O)(O)O)[C@@H](O)[C@H]1O [5′-AMP] | – | – | 124 ± 1 µM | – | – | 540 ± 31.4 µM | 300 ± 45 µM
dATATA | – | – | – | 72.9 ± 9 µM | 302 ± 31 µM | – | –

— PMC6005897, “Ligand-Induced Variations in Structural and Dynamical Properties Within an Enzyme Superfamily” (Frontiers in Molecular Biosciences, 2018)
